Measurements reported in BigSolDB 2.1.

COc1ccc2c3c1O[C@H]1[C@@H](O)C=C[C@H]4[C@@H](C2)N(C)CC[C@@]341.O=P(O)(O)O
solubility (mole fraction)
Conditions	293.2 K	298.2 K	303.2 K	308.2 K	313.2 K
in NMP	0.00206	0.00212	0.00239	0.00249	0.00259
in isopropanol	1.96e-05	2.52e-05	2.99e-05	3.6e-05	3.99e-05
